Data: the supplement of paper PMC10627819

What was measured:
S. aureus DSM 20231 = experiment: Bliss interaction score (quartile over a dose matrix) (fitness difference); higher = more antagonism (negative = synergy)
Procedure, shortened: (§1)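 The Bliss score is observed minus expected fitness, where expected fitness is the product of the single-drug fitness values inferred from the combination data. Fitness is the OD595 at the onset of stationary phase over the plate's robust no-drug mean, capped at 1. Scores are summarised by quartiles over technical, biological and donor/recipient replicates.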

S. pneumoniae D39V [1] = experiment: as above
Procedure, shortened: as §1

S. aureus Newman = experiment: as above
Procedure, shortened: as §1

B. subtilis 168 = experiment: as above
Procedure, shortened: as §1

S. pneumoniae D39V [2] = experiment: fitness (endpoint OD595 vs no drug) (fraction); higher = more growth
Procedure, shortened: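 At 37 °C, bacteria in TSB, LB Lennox or CY were grown in 384-well plates from a starting OD595 of 0.01. OD595 was measured every 30 min for 14 h, with the first reading used as background. Fitness is the optical density at the switch to stationary phase as a fraction of the robust mean of no-drug control wells, capped at 1.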
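Wherever Bliss interaction score (quartile over a dose matrix) is given: first quartile when negative (synergy) and third quartile when positive (antagonism).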
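Wherever fitness (endpoint OD595 vs no drug) is given: OD595 on entry to stationary phase over no-drug wells; at most 1.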

CC[C@H]1OC(=O)[C@H](C)[C@@H](O[C@H]2C[C@@](C)(OC)[C@@H](O)[C@H](C)O2)[C@H](C)[C@@H](O[C@@H]2O[C@H](C)C[C@H](N(C)C)[C@H]2O)[C@](C)(OC)C[C@@H](C)C(=O)[C@H](C)[C@@H](O)[C@]1(C)O [Clarithromycin] + Cc1ncc([N+](=O)[O-])n1CCO [Metronidazole]
Conditions	Bliss interaction score
B. subtilis 168	0.103
S. aureus DSM 20231	0.118
S. aureus Newman	-0.0393
S. pneumoniae D39V [1]	0.106

fitness, S. pneumoniae D39V [2], one replicate
Conditions	first compound 0.007812 µg/mL	first compound 0.01562 µg/mL	first compound 0.03125 µg/mL
partner 1.25 µg/mL	0.927	0.903	0.669
partner 2.5 µg/mL	0.926	0.891	0.692
partner 5 µg/mL	0.917	0.856	0.668

fitness, S. pneumoniae D39V [2]
Conditions	first compound 0.0625 µg/mL	first compound 0.07 µg/mL	first compound 0.125 µg/mL	first compound 0.14 µg/mL	first compound 0.25 µg/mL	first compound 0.28 µg/mL
partner 1.073 µg/mL	0.729	–	0.542	–	0.337	–
partner 1.25 µg/mL	–	0.149	–	0.0801	–	0.0663
partner 2.145 µg/mL	0.734	–	0.598	–	0.393	–
partner 2.5 µg/mL	–	0.168	–	0.0889	–	0.101
partner 4.29 µg/mL	0.688	–	0.554	–	0.257	–
partner 5 µg/mL	–	0.178	–	0.114	–	0.0828

CC[C@H]1OC(=O)[C@H](C)[C@@H](O[C@H]2C[C@@](C)(OC)[C@@H](O)[C@H](C)O2)[C@H](C)[C@@H](O[C@@H]2O[C@H](C)C[C@H](N(C)C)[C@H]2O)[C@](C)(OC)C[C@@H](C)C(=O)[C@H](C)[C@@H](O)[C@]1(C)O [Clarithromycin] + Cc1onc(-c2ccccc2)c1C(=O)N[C@@H]1C(=O)N2[C@@H]1SC(C)(C)[C@@H]2C(=O)O [Oxacillin]
Conditions	Bliss interaction score
B. subtilis 168	0.0227
S. aureus DSM 20231	0.0328
S. aureus Newman	-0.0384
S. pneumoniae D39V [1]	0.0844

fitness, S. pneumoniae D39V [2], one replicate
Conditions	first compound 0.007812 µg/mL	first compound 0.01562 µg/mL	first compound 0.03125 µg/mL
partner 0.01 µg/mL	0.9	0.856	0.678
partner 0.02 µg/mL	0.911	0.833	0.646
partner 0.04 µg/mL	0.414	0.48	0.418

fitness, S. pneumoniae D39V [2]
Conditions	first compound 0.0625 µg/mL	first compound 0.07 µg/mL	first compound 0.125 µg/mL	first compound 0.14 µg/mL	first compound 0.25 µg/mL	first compound 0.28 µg/mL
partner 0.005 µg/mL	–	0.179	–	0.128	–	0.119
partner 0.01 µg/mL	0.564	0.185	–	0.136	0.165	0.0928
partner 0.02 µg/mL	0.54	0.182	–	0.117	0.158	0.107
partner 0.04 µg/mL	–	–	0.254	–	0.0887	–

CC[C@H]1OC(=O)[C@H](C)[C@@H](O[C@H]2C[C@@](C)(OC)[C@@H](O)[C@H](C)O2)[C@H](C)[C@@H](O[C@@H]2O[C@H](C)C[C@H](N(C)C)[C@H]2O)[C@](C)(OC)C[C@@H](C)C(=O)[C@H](C)[C@@H](O)[C@]1(C)O [Clarithromycin] + Clc1ccc(COC(Cn2ccnc2)c2ccc(Cl)cc2Cl)c(Cl)c1 [Miconazole]
Conditions	Bliss interaction score
B. subtilis 168	0.0897
S. aureus DSM 20231	0.0854
S. aureus Newman	0.0558
S. pneumoniae D39V [1]	0.0979

fitness, S. pneumoniae D39V [2], one replicate
Conditions	first compound 0.007812 µg/mL	first compound 0.01562 µg/mL	first compound 0.03125 µg/mL
partner 1.25 µg/mL	0.924	0.848	0.664
partner 2.5 µg/mL	0.9	0.855	0.66
partner 5 µg/mL	0.869	0.847	0.556

S. pneumoniae D39V [2]
Conditions	fitness
first compound 0.0625 µg/mL, partner 1.073 µg/mL	0.747
first compound 0.0625 µg/mL, partner 2.145 µg/mL	0.638
first compound 0.0625 µg/mL, partner 4.29 µg/mL	0.635
first compound 0.07 µg/mL, partner 1.25 µg/mL	0.167
first compound 0.07 µg/mL, partner 2.5 µg/mL	0.185
first compound 0.07 µg/mL, partner 5 µg/mL	0.107
first compound 0.125 µg/mL, partner 4.29 µg/mL	0.448
first compound 0.14 µg/mL, partner 1.25 µg/mL	0.117
first compound 0.14 µg/mL, partner 2.5 µg/mL	0.151
first compound 0.14 µg/mL, partner 5 µg/mL	0.0925
first compound 0.25 µg/mL, partner 1.073 µg/mL	0.0979
first compound 0.25 µg/mL, partner 2.145 µg/mL	0.0742
first compound 0.25 µg/mL, partner 4.29 µg/mL	0.218
first compound 0.28 µg/mL, partner 1.25 µg/mL	0.0568
first compound 0.28 µg/mL, partner 2.5 µg/mL	0.122
first compound 0.28 µg/mL, partner 5 µg/mL	0.0835

CC[C@H]1OC(=O)[C@H](C)[C@@H](O[C@H]2C[C@@](C)(OC)[C@@H](O)[C@H](C)O2)[C@H](C)[C@@H](O[C@@H]2O[C@H](C)C[C@H](N(C)C)[C@H]2O)[C@](C)(OC)C[C@@H](C)C(=O)[C@H](C)[C@@H](O)[C@]1(C)O [Clarithromycin] + Cn1nnc(-c2ccc(-c3ccc(N4C[C@H](CO)OC4=O)cc3F)cn2)n1 [Tedizolid]
Conditions	Bliss interaction score
B. subtilis 168	-0.0452
S. aureus DSM 20231	-0.109
S. aureus Newman	-0.106
S. pneumoniae D39V [1]	0.0824

fitness, S. pneumoniae D39V [2], one replicate
Conditions	first compound 0.007812 µg/mL	first compound 0.01562 µg/mL	first compound 0.03125 µg/mL
partner 0.125 µg/mL	0.739	0.692	0.639
partner 0.25 µg/mL	0.701	0.685	0.686
partner 0.5 µg/mL	0.373	0.381	0.353

fitness, S. pneumoniae D39V [2]
Conditions	first compound 0.0625 µg/mL	first compound 0.07 µg/mL	first compound 0.125 µg/mL	first compound 0.14 µg/mL	first compound 0.25 µg/mL	first compound 0.28 µg/mL
partner 0.03125 µg/mL	0.715	–	0.544	–	0.317	–
partner 0.0625 µg/mL	0.727	–	0.571	–	0.336	–
partner 0.125 µg/mL	0.666	0.0645	0.511	0.053	0.275	0.0588
partner 0.25 µg/mL	–	0.0475	–	0.0527	–	0.0319
partner 0.5 µg/mL	–	0.0477	–	0.0537	–	0.0347
